# According to patent publication US12522614B2, “Topical phosphoinositide 3-kinase inhibitors” (VENTHERA, INC., priority 2019, dated 2026):
# pIC50: −log10 of the molar value.
# Tests used:
# [1] = Accelerated stability study of topical gel formulations at 80° C.; type: physicochemical; conditions: gel formulation, 3 days
# [2] = as above; type: physicochemical; conditions: for Stability in gel formulation: 80° C. for 10 days; for percent hydrolysis to the parent compound MTPP: gel formulation, 80° C.
# Procedure: Topical gel formulations were prepared using excipients as shown in Table 2 according to Example 8, in which Compounds 1.002, 1.012, and 1.006 were used as the active ingredient, respectively. These gel formulations were subjected to stability study at 80° C. for 10 days. Stability under the condition of at 80° C. for 10 days is expected to be approximately equivalent to the stability for three (3) years at room temperature. A relative purity of the tested compound after being exposed for 5 days and 10 days at 80° C. was determined by HPLC, as compared to its initial purity (at day 0).
# The values shown in the table are percent hydrolysis of the respective compounds to the parent compound MTPP.
# Topical gel formulations of Compound 1.002 were prepared using excipients as shown in Table 2 according to Example 8, in which the content of oleic acid varied at 1%, 2%, 5%, and 10%, respectively. These gel formulations were subjected to stability study at 80° C. for 10 days, which is expected to be approximately equivalent to the stability for three (3) years at room temperature. A purity of the tested compound on day 0, 5, 7, and 10 at 80° C. was determined by HPLC. The detected impurity of the tested compound appears to be the hydrolysis product, as MTPP. Table 17 represents stability data of Compound 1.002 in topical formulations having oleic acid at various contents.
# Gel formulations of Example 17 were subjected to stability study at 80° C. for 10 days. Stability under the condition of at 80° C. for 10 days is expected to be approximately equivalent to the stability for three (3) years at room temperature. A relative purity of Compound 1.002 after being exposed for 5 days and 10 days at 80° C. was determined by HPLC, as compared to its initial purity (at day 0).
# PI3Kb (p110b/p85a) = molecular target: T1, PI3Kb (p110b/p85a) (Homo sapiens, UniProt P42338); assay: Lipid kinase inhibitory activity, ADP-Glo; type: biochemical; conditions: β
# T1 construct: purchased Reaction Biology Corporation (RBC)
# Procedure: (§1) Lipid kinases: Lipid kinases from Reaction Biology Corporation (RBC) in ADP-Glo format were used.
# (§2) Assay Description: The kinase reactions utilized ATP and produced ADP as a byproduct. The ADP production was quantified by ADP-Glo luminescence detection. This assay was a 3-step reaction. First, the kinase reaction with lipid substrate was carried out in the presence of ATP, and the reaction was quenched and depleted remaining ATP with ADP-Glo™ reagent, and then finally ADP was converted to ATP which was measured using a luciferase/luciferin reaction.
# (§3) Assay Procedure: The assay was performed according to the steps as follows: • 1. Preparing substrate in freshly prepared reaction buffer; • 2. Delivering kinase into the substrate solution and gently mixing; • 3. Delivering compounds in […] into the kinase reaction mixture by Acoustic technology (Echo550; nanoliter range), incubating for 20 minutes at room temperature; • 4. Delivering ATP into the reaction mixture to initiate the reaction; • 5. Incubating for 30 minutes at 30° C.; • 6. Quenching the reaction with ADP-Glo reagent and incubating for 40 minutes; • 7. Adding Detection Mixture and incubating for 30 minutes; and • 8. Measuring luminescence.
# (§4) Data Analysis: The luminescence was converted into μM ADP production based on ADP standard curves. The nonlinear regression to obtain the standard curve and IC50 values were performed using Graphpad Prism software.
# MTOR/FRAP1 = molecular target: T2, MTOR/FRAP1 (Homo sapiens, UniProt P42345); assay: Lipid kinase inhibitory activity, ADP-Glo; type: biochemical
# T2 construct: purchased Reaction Biology Corporation (RBC)
# Procedure: as §1, §2, §3, §4
# PI3Kd (p110d/p85a) = molecular target: T3, PI3Kd (p110d/p85a) (Homo sapiens, UniProt O00329); assay: Lipid kinase inhibitory activity, ADP-Glo; type: biochemical; conditions: δ
# T3 construct: purchased Reaction Biology Corporation (RBC)
# Procedure: as §1, §2, §3, §4
# PI3Ka (p110a/p85a) = molecular target: T4, PI3Ka (p110a/p85a) (Homo sapiens, UniProt P42336); assay: Lipid kinase inhibitory activity, ADP-Glo; type: biochemical; conditions: α
# T4 construct: purchased Reaction Biology Corporation (RBC)
# Procedure: as §1, §2, §3, §4
# PI3K (p110a(E545K)/p85a) = molecular target: T5, PI3K (p110a(E545K)/p85a) (Homo sapiens, UniProt P42336, E545K); assay: Lipid kinase inhibitory activity, ADP-Glo; type: biochemical; conditions: α E545K
# T5 construct: purchased Reaction Biology Corporation (RBC)
# Procedure: as §1, §2, §3, §4
# PI3K (p110a(E542K)/p85a) = molecular target: T6, PI3K (p110a(E542K)/p85a) (Homo sapiens, UniProt P42336, E542K); assay: Lipid kinase inhibitory activity, ADP-Glo; type: biochemical; conditions: α E542K
# T6 construct: purchased Reaction Biology Corporation (RBC)
# Procedure: as §1, §2, §3, §4
# [3] = molecular target: T7, PI3K (p110a(H1047R)/p85a) (Homo sapiens, UniProt P42336, H1047R); assay: Lipid kinase inhibitory activity, ADP-Glo; type: biochemical; conditions: α H1047R
# T7 construct: purchased Reaction Biology Corporation (RBC)
# Procedure: as §1, §2, §3, §4
# PI3Kg (p110g) = molecular target: T8, PI3Kg (p110g) (Homo sapiens, UniProt P48736); assay: Lipid kinase inhibitory activity, ADP-Glo; type: biochemical; conditions: γ
# T8 construct: purchased Reaction Biology Corporation (RBC)
# Procedure: as §1, §2, §3, §4
# T5 sequence (P42336 whole entry E545K): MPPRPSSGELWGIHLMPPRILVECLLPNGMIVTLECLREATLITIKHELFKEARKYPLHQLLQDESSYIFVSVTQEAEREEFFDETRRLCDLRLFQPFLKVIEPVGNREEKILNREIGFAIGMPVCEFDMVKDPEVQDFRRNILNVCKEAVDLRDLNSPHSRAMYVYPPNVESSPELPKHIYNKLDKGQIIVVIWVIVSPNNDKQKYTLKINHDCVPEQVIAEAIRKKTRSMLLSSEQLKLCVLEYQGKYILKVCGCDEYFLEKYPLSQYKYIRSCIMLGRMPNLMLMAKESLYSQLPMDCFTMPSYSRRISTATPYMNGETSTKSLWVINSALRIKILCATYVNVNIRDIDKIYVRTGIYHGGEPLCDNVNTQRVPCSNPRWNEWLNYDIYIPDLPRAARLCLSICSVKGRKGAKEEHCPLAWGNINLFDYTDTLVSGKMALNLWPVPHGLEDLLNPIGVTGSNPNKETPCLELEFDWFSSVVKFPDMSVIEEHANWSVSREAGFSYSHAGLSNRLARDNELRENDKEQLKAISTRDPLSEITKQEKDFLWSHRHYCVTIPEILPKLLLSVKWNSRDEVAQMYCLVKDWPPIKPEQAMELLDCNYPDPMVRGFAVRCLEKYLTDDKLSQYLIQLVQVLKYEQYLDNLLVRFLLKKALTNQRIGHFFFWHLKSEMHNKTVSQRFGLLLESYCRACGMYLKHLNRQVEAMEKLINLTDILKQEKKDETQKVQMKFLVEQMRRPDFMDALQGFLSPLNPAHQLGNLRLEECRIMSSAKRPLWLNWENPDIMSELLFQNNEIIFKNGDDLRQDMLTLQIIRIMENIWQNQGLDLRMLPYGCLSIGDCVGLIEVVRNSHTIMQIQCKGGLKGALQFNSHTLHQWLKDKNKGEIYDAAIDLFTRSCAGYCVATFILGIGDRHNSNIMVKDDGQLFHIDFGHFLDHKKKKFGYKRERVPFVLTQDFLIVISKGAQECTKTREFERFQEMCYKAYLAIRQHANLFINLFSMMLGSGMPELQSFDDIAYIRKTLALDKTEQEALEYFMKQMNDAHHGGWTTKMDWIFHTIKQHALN
# T5 sequence (P27986 whole entry partner): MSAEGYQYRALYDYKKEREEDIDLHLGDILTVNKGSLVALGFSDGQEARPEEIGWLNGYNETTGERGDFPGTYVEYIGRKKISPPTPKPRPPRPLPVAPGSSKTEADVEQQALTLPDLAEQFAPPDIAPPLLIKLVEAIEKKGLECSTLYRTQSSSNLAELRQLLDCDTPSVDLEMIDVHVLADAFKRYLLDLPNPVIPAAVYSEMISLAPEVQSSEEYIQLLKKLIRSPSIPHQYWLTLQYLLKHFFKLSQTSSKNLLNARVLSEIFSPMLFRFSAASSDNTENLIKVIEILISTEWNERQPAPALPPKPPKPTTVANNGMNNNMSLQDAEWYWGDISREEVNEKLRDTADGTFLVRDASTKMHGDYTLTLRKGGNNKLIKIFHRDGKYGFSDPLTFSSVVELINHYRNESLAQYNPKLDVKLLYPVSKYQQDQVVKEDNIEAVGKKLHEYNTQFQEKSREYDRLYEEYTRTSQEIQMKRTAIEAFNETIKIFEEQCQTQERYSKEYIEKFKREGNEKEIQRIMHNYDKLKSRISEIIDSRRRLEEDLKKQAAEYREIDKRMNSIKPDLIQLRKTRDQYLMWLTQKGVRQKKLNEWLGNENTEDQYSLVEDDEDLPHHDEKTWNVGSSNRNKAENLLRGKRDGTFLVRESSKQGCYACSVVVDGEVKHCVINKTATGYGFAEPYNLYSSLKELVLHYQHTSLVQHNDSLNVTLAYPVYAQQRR
# T3 sequence (O00329 whole entry): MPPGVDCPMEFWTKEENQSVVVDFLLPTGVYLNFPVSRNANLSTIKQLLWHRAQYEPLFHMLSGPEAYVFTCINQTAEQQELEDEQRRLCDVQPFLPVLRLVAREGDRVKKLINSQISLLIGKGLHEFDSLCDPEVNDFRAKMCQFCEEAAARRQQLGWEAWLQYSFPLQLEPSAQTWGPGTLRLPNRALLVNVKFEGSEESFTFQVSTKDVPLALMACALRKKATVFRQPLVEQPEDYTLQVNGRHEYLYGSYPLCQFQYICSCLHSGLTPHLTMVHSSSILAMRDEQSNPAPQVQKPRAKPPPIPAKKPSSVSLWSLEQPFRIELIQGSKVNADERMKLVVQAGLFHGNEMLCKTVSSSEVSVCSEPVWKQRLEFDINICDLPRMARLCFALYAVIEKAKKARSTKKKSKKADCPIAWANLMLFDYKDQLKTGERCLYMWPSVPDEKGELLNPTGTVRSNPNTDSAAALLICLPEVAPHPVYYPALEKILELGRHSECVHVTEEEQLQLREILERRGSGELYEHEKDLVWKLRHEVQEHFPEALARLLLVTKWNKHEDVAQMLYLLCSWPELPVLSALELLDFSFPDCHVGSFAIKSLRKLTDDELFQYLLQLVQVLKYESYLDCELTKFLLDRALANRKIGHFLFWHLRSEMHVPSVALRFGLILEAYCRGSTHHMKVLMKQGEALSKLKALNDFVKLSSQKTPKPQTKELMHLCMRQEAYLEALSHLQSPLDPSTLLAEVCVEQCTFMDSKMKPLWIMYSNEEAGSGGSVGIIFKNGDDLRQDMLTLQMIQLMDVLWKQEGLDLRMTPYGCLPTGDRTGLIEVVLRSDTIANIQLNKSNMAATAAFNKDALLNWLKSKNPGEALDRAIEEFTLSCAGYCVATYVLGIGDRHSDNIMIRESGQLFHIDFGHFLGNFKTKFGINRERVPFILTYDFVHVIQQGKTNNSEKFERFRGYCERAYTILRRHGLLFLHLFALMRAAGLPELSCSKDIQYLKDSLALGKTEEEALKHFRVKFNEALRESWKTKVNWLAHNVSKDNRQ
# T3 sequence (P27986 whole entry partner): as the sequence (P27986 whole entry partner) above
# T1 sequence (P42338 whole entry): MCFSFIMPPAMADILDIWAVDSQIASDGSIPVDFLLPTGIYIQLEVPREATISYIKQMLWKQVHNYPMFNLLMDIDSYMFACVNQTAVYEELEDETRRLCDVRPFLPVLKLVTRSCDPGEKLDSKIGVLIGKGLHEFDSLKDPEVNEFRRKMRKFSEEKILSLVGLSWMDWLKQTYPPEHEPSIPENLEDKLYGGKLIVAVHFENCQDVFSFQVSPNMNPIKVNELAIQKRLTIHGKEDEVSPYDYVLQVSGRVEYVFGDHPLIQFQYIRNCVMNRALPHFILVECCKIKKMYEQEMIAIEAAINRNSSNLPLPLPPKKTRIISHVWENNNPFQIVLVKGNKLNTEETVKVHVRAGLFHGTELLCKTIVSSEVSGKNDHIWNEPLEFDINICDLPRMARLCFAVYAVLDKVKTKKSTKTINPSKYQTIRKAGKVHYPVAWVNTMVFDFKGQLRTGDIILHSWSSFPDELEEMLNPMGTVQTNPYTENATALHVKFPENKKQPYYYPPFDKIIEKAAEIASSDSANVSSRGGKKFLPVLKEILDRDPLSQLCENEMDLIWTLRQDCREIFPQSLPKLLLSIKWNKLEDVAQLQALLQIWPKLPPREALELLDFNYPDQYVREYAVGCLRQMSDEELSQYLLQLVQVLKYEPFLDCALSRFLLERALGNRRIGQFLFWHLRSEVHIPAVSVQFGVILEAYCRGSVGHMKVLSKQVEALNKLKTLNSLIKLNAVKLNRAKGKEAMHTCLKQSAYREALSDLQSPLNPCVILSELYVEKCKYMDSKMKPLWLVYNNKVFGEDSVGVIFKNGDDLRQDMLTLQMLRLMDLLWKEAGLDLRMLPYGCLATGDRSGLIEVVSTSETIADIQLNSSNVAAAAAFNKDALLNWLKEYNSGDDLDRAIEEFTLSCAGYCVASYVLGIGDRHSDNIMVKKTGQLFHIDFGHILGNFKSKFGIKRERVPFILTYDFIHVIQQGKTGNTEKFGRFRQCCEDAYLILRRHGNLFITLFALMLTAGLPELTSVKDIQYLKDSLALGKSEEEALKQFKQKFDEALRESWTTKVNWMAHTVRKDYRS
# T1 sequence (P27986 whole entry partner): as the sequence (P27986 whole entry partner) above
# T8 sequence (P48736 whole entry): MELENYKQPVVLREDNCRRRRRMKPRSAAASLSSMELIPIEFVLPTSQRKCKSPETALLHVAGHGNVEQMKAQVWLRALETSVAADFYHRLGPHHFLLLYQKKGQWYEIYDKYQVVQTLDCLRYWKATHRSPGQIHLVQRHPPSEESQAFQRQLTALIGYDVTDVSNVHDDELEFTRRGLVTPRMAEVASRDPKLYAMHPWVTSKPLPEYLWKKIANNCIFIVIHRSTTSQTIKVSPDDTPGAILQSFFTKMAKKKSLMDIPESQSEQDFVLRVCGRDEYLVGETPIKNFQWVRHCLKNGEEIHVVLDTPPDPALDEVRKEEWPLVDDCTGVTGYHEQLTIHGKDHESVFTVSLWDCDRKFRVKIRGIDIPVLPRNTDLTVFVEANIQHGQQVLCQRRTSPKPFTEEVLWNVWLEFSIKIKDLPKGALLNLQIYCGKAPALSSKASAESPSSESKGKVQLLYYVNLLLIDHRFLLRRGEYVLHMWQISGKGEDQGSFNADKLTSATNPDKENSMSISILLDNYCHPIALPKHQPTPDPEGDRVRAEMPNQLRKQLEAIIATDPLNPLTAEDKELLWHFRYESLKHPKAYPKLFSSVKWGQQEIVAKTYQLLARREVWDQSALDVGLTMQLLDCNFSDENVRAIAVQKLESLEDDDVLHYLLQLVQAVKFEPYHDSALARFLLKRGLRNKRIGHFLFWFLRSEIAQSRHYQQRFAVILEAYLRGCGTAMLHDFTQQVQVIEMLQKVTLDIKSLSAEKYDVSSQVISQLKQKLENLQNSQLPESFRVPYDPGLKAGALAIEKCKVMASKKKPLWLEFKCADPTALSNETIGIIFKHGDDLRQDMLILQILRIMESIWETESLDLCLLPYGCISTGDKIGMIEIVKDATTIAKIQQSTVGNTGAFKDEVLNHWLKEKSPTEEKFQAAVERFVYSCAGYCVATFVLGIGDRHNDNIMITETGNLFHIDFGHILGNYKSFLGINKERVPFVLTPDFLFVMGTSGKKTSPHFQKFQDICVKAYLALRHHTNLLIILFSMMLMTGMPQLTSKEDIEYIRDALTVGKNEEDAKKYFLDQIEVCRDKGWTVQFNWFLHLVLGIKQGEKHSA
SMILES,percent hydrolysis to the parent compound MTPP [1],Stability in gel formulation [2],percent hydrolysis to the parent compound MTPP ([2]; 0 days),percent hydrolysis to the parent compound MTPP ([2]; 5 days),percent hydrolysis to the parent compound MTPP ([2]; 7 days),percent hydrolysis to the parent compound MTPP ([2]; 10 days),pIC50 (PI3Kb (p110b/p85a)),pIC50 (MTOR/FRAP1),pIC50 (PI3Kd (p110d/p85a)),pIC50 (PI3Ka (p110a/p85a)),pIC50 (PI3K (p110a(E545K)/p85a)),pIC50 (PI3K (p110a(E542K)/p85a)),pIC50 [3],pIC50 (PI3Kg (p110g))
"CCCCCCCC/C=C\CCCCCCCC(=O)Oc1cccc(-c2nc(N3CCOCC3)c3sccc3n2)c1 [Compound 1.011, 3-(4-Morpholinothieno[3,2-d]pyrimidin-2-yl)phenyl Oleate]",0.18%,very stable,0.09%,0.24%,0.33%,0.43%,–,–,–,–,–,–,–,–
"O=C(/C=C/c1ccccc1)Oc1cccc(-c2nc(N3CCOCC3)c3sccc3n2)c1 [Compound 1.014, 3-(4-Morpholinothieno[3,2-d]pyrimidin-2-yl)phenyl Cinnamate]",1.32%,very stable,0.00%,2.09%,2.43%,2.94%,–,–,–,–,–,–,–,–
"CC(=O)OCc1cccc(-c2nc(N3CCOCC3)c3sccc3n2)c1 [Compound 1.015, 3-(4-Morpholinothieno[3,2-d]pyrimidin-2-yl)benzyl acetate]",–,–,–,–,–,–,5.25,5.48,6.15,5.71,5.37,5.43,5.51,6.88
"OCc1cccc(-c2nc(N3CCOCC3)c3sccc3n2)c1 [MTPPM, (3-(4-morpholinothieno[3,2-d]pyrimidin-2-yl)phenyl)methanol, reference compound]",–,–,–,–,–,–,7.25,6.95,7.77,8.15,8.01,8.05,8.11,7.21
